Values of other authors in US20250135014A1, “TARGETED LINEAR CONJUGATES COMPRISING POLYETHYLENEIMINE AND POLYETHYLENE GLYCOL AND POLYPLEXES COMPRISING THE SAME” (TARGIMMUNE THERAPEUTICS AG, priority 2021, published 2025).

Target: EGFR (Homo sapiens, UniProt P00533)
Conditions: Ruoslahti et al. 2012; Li et al. 2005

Kd: 22 nM
Sequence: YHWYGYTPQNVI [GE-11]
